# Test results as given in article PMC4501059, “Responding to the challenge of untreatable gonorrhea: ETX0914, a first-in-class agent with a distinct mechanism-of-action against bacterial Type II topoisomerases” (Scientific Reports, 2015).
# Read-outs that look alike come from different tables or passages of the source.
# Tests used:
# Ureaplasma spp. = tested on: Ureaplasma spp.; set-up: method as in ref 3 (supplement); settings: 21 tested; ref 3 (supplement); cited from earlier work
# Chlamydia trachomatis = tested on: Chlamydia trachomatis; set-up: method as in ref 3 (supplement); settings: 10 tested; ref 3 (supplement); cited from earlier work
# S. aureus ARC516 = assay: MIC (CLSI broth microdilution); type: cell-based
# [1] = plasma protein binding, rat; type: in vitro ADME; settings: in vitro at 1-50 µM
# Source text: (§1) Supplement srep11827-s1.doc, table 4 | column: Han-Wister rat (male)
# [2] = tested on: S. aureus AP607004 (MRQR); assay: MIC (CLSI broth microdilution); type: cell-based
# [3] = plasma protein binding, mouse; settings: in vitro at 1-50 µM
# N. gonorrhoeae ATCC49226 = assay: MIC (CLSI agar dilution); type: cell-based
# [4] = tested on: S. pneumoniae ARC2205 (ERQR); assay: MIC (CLSI broth microdilution); type: cell-based
# hCav1.2 = hCav1.2 (Homo sapiens, UniProt Q13936); assay: In vitro ion channel function; type: cell-based; settings: hCav1.2 IC50, Ca^2+ entry into excitable cells
# Source text: (§2) Supplement srep11827-s1.doc, table 3 | column: Table S2: In vitro ion channel function IC50 (µM)
# Kv1.5 = Kv1.5 (Homo sapiens, UniProt P22460); assay: In vitro ion channel function; type: cell-based; settings: Ikr/Kv1.5 IC50, Rapidly activating K^+ delayed rectifier
# Source text: as §2
# [5] = hepatocyte intrinsic clearance; type: in vitro ADME; settings: male, Han-Wister, rat hepatocytes
# Source text: as §1
# Moraxella catarrhalis = tested on: Moraxella catarrhalis; set-up: method as in ref 2 (supplement); settings: 145 tested; ref 2 (supplement); cited from earlier work
# USA300 NRS384 = assay: MIC (modal, CLSI broth microdilution); type: cell-based, S. aureus; settings: Staphylococcus aureus, read-out: Modal MIC
# Streptococcus pyogenes = tested on: Streptococcus pyogenes; set-up: method as in ref 2 (supplement); settings: 1358 tested; ref 2 (supplement); cited from earlier work
# Neisseria gonorrhoeae = settings: cited from earlier work
# [6] = tested on: resistant isolates of S. aureus, S. pneumoniae and N. gonorrhoeae; type: cell-based
# USA100 NRS382 = assay: MIC (modal, CLSI broth microdilution); type: cell-based, S. aureus; settings: Staphylococcus aureus, read-out: Modal MIC
# [7] = 28 day oral toxicology study, rat; type: in vivo, Han Wistar rat; settings: for NOAEL at 28 days: in vivo
# Description: The following dosing formulation for rat and dog 28 day PO studies was used: a 100 mg/mL stock of ETX0914 in 5% dextrose and 2.5M meglumine adjusted to pH 9 using 5M HCl or 2.5M meglumine. The dosing formulations were diluted as required with phosphate buffered saline and dispensed daily. […] A control group of 10 male and 10 females were given the vehicle only. An additional 3 animals per sex were allocated to each group for toxicokinetics wherein blood samples (1 mL) from the tail vein pre-trial and on Day 27 were collected. […] Animals were terminated by exposure to CO2. The following were assessed: clinical observations, body weight, food consumption, body temperature, hematology, plasma chemistry, toxicokinetics and gross and microscopic pathology.
# [8] = tested on: N. gonorrhoeae ARC4676 (QR); type: cell-based
# [9] = hepatocyte intrinsic clearance; settings: human, hepatocytes
# Streptococcus pneumoniae = tested on: Streptococcus pneumoniae; set-up: method as in ref 2 (supplement); settings: 2324 tested; ref 2 (supplement); cited from earlier work
# [10] = comparative haematology analysis in the rat, oral dosing; settings: for AUC: Han Wistar, in vivo, po; for AUC / haematology versus vehicle control: rat; for haematology versus vehicle control: 28 d
# [11] = 473 tested, ref 4-6 (supplement)
# Chain of hCav1.2 (P54289 25-1103): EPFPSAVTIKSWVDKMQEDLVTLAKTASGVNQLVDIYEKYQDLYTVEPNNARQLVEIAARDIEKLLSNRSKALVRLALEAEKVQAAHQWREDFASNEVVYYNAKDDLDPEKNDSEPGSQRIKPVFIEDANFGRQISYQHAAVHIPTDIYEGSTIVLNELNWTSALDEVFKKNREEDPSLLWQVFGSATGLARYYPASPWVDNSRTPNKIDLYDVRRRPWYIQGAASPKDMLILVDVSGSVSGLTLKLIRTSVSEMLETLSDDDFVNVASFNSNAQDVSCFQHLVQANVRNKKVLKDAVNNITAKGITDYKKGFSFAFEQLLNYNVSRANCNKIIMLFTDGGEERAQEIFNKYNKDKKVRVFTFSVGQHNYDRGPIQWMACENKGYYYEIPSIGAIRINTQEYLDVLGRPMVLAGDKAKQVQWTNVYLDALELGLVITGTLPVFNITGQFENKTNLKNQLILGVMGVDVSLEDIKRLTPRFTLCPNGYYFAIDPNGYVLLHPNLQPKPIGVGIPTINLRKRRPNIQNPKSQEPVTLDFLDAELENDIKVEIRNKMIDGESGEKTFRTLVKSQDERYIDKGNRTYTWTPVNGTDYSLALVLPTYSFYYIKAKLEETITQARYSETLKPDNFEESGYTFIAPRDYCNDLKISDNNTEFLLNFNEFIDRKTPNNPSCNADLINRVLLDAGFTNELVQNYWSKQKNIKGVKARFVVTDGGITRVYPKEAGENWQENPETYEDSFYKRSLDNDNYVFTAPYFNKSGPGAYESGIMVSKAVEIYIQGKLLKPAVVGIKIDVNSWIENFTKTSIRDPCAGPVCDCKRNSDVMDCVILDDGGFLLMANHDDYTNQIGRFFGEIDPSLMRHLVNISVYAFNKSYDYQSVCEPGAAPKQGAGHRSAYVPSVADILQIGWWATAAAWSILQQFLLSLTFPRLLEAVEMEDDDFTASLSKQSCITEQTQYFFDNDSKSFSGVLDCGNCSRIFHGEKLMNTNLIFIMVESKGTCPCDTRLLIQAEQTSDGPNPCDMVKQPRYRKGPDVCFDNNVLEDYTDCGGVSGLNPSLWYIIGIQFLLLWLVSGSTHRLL
# Chain of hCav1.2 (Q13936 whole entry): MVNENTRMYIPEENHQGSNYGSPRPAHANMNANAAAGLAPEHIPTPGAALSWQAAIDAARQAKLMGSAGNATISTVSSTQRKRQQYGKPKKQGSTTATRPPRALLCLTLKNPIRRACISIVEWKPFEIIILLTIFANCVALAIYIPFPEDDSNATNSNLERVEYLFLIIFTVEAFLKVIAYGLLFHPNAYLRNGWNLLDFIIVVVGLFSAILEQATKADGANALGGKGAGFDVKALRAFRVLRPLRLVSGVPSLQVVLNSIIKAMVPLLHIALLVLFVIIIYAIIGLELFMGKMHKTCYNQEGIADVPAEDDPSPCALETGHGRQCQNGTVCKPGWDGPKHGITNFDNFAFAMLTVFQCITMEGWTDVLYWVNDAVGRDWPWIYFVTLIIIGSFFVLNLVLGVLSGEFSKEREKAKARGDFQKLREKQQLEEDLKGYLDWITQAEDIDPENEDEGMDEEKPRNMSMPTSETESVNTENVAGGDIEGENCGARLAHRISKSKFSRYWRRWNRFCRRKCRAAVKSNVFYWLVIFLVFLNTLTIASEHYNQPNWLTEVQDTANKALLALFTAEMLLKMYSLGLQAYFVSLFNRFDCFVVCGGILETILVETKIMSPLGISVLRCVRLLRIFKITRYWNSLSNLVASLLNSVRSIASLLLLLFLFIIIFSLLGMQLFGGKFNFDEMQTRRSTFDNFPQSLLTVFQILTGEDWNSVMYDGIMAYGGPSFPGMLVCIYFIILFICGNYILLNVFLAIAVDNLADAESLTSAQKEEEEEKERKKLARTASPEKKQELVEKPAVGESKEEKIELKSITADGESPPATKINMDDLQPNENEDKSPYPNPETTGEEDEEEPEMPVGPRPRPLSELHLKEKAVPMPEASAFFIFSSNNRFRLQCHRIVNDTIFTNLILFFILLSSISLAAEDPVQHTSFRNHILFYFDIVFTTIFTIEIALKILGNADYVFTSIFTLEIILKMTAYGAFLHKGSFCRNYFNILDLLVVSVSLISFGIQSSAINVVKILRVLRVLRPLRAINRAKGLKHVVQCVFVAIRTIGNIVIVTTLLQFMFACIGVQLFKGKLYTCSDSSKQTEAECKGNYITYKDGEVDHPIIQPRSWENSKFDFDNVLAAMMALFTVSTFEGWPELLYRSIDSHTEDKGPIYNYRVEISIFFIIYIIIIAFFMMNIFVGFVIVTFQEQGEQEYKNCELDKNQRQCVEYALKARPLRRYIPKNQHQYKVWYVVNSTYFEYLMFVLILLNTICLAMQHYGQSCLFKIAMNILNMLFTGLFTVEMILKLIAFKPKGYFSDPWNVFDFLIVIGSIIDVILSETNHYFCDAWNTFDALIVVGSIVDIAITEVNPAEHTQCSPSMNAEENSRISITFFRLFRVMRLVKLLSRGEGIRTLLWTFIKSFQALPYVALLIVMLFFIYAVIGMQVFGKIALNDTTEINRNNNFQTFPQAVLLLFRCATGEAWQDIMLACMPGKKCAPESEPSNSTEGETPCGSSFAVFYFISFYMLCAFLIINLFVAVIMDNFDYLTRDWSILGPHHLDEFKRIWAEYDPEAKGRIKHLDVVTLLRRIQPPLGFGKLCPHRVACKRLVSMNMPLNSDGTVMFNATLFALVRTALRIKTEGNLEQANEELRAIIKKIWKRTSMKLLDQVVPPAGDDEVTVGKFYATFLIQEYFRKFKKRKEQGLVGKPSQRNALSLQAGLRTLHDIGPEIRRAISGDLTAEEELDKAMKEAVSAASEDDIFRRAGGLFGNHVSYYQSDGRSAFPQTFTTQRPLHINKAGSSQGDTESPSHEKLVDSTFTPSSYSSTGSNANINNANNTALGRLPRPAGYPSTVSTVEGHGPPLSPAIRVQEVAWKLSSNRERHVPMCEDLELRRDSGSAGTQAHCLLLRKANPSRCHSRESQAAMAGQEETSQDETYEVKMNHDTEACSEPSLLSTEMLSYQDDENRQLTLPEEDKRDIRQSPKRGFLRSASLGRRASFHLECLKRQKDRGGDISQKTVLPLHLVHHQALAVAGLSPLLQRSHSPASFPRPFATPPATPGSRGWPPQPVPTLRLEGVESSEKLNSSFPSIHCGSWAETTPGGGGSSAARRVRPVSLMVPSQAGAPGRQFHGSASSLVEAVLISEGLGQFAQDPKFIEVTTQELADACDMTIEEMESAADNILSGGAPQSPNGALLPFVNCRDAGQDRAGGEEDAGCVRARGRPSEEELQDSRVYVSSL
# Chain of hCav1.2 (Q08289 whole entry, further chain): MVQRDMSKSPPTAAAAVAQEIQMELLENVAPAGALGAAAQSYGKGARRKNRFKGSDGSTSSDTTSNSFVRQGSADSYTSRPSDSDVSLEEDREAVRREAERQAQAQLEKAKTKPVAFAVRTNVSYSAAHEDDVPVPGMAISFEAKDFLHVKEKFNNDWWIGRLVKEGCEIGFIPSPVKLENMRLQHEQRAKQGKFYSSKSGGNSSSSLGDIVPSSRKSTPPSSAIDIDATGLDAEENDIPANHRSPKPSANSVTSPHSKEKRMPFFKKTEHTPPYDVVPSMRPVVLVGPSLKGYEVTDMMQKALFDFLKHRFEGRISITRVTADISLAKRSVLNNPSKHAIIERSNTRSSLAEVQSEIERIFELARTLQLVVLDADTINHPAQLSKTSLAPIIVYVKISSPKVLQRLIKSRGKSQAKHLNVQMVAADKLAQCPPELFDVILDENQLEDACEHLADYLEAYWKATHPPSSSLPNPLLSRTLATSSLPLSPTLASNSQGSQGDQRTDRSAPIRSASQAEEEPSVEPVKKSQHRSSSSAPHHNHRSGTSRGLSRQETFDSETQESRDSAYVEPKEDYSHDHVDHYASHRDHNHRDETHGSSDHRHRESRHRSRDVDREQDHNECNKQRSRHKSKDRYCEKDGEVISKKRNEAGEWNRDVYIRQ
# Chain of Kv1.5 (P22460 whole entry): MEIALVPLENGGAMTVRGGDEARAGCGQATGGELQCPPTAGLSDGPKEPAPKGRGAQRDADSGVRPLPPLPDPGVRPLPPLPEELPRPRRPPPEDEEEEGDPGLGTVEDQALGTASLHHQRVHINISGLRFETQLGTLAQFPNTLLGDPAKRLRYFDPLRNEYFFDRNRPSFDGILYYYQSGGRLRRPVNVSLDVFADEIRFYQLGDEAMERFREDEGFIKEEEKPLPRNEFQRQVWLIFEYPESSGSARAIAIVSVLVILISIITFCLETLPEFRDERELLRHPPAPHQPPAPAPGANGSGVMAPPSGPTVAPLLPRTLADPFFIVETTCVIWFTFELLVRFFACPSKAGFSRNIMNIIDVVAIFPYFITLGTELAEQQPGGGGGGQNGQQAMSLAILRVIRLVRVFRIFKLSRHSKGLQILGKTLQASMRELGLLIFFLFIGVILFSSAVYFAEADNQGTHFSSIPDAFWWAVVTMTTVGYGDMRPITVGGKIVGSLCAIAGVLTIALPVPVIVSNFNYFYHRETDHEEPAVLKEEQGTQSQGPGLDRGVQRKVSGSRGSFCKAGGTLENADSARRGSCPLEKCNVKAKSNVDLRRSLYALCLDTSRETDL
compound,measurement,setting,value
C[C@@H]1CN2c3c(cc4c(N5C(=O)OC[C@@H]5C)noc4c3F)CC3(C(=O)NC(=O)NC3=O)[C@H]2[C@H](C)O1 [ETX0914],MIC90,Ureaplasma spp.,1.0^3 µg/ml
same,MIC Range,Ureaplasma spp.,0.125 to 2 µg/mL
same,MIC90,Chlamydia trachomatis,0.25^3 µg/ml
same,MIC Range,Chlamydia trachomatis,0.06 to 0.5 µg/mL
same,MIC: S. aureus ARC516,S. aureus ARC516,0.125 µg/mL
same,MIC,"S. aureus ARC516; Staphylococcus aureus, MSSA, read-out: Modal MIC",0.0625 µg/mL
same,PPB (%free),[1],19.1±1.1 %free
same,MIC: S. aureus AP607004 (MRQR),[2],0.5 µg/mL
same,PPB (%free),[3],22.1 %free
same,PPB (%free),[3]; listed as AZD0914,22.1±0.3 %free
same,MIC: N. gonorrhoeae ATCC49226,N. gonorrhoeae ATCC49226,0.125 µg/mL
same,MIC: S. pneumoniae ARC2205 (ERQR),[4],0.125 µg/mL
same,IC50,hCav1.2,326 µM
same,IC50,Kv1.5,> 333 µM
same,hepatocyte CLint at 1 µM,[5],10 µL/min/1e6 cells
same,MIC90,Moraxella catarrhalis,0.25^2 µg/ml
same,MIC Range,Moraxella catarrhalis,0.015 to 0.5 µg/mL
same,MIC,USA300 NRS384,0.25 µg/mL
same,MIC90,Streptococcus pyogenes,0.25^2 µg/ml
same,MIC Range,Streptococcus pyogenes,≤ 0.015 to 0.5 µg/mL
same,MIC90,Neisseria gonorrhoeae; [11],0.125^4-6 µg/ml
same,MIC Range,Neisseria gonorrhoeae; [11],0.004 to 0.25 µg/mL
same,"MIC90, gonococcal infection (N. gonorrhoeae)","Neisseria gonorrhoeae; Table 2, first entry of the cell (ciprofloxacin: 250 mg UID line)",0.12 µg/mL
same,susceptibility of GyrB\ParE mutants with reduced novobiocin susceptibility,"[6]; S. aureus ARC3445, S. pneumoniae ARC2800",fully susceptible
same,cross-resistance of NBTI resistant S. aureus mutant ARC2796,[6]; derived from ARC516,not cross-resistant
same,MIC,USA100 NRS382,0.125 µg/mL
same,solubility,physchem,390 µM
same,Salient Pathology Findings,"[7]; 1 month rat (po), 500 mg/kg/day","Reduced activity, pilo-erection, irregular respiration Seminal vesicle: secretory depletion, atrophy Epididymis: cellular debris (minimal) Spleen: increased congestion/haematopoiesis Cecum & rectum: mucosal hyperplasia"
same,Salient Pathology Findings,"[7]; 1 month rat (po), 1000 mg/kg/day",As above & testes tubular degeneration partially reversible 3 months post dosing
same,AUC(0-t),"[7]; both sexes, Han Wistar, blood, oral, rat, 200 mg/kg, day 27, read-out: AUC24h at NOAEL",1070 µg·h/mL
same,Cmax,"[7]; both sexes, Han Wistar, blood, oral, rat, 200 mg/kg, day 27, read-out: Cmax at NOAEL",107 µg/mL
same,NOAEL at 28 days,"[7]; both sexes, Han Wistar, oral, rat, 28 days",200 mg/kg
same,NOAEL at 28 days,"[7]; both sexes, Han Wistar, 1 month rat (po)",200 mg/kg/day
same,AUC,"[7]; both sexes, Han Wistar, plasma, 1 month rat (po), 200 mg/kg/day",1100 ± 130 µg·h/mL
same,Cmax,"[7]; both sexes, Han Wistar, plasma, 1 month rat (po), 200 mg/kg/day, read-out: Cmax (±SD)",110 ± 30 µg/mL
same,AUC,"[7]; both sexes, Han Wistar, plasma, 1 month rat (po), 500 mg/kg/day",2460 ± 470 µg·h/mL
same,Cmax,"[7]; both sexes, Han Wistar, plasma, 1 month rat (po), 500 mg/kg/day, read-out: Cmax (±SD)",170 ± 30 µg/mL
same,AUC,"[7]; both sexes, Han Wistar, plasma, 1 month rat (po), 1000 mg/kg/day",3820 ± 650 µg·h/mL
same,Cmax,"[7]; both sexes, Han Wistar, plasma, 1 month rat (po), 1000 mg/kg/day, read-out: Cmax (±SD)",260 ± 55 µg/mL
same,margin of fAUC at rat NOAEL to efficacious fAUC in mouse thigh model,"[7]; both, Han Wistar, rat, plasma, oral, 200 mg/kg",13 fold
same,haematology or platelet count at the NOAEL,[7]; rat,no significant changes in haematology or platelet count
same,tolerated dose,"[7]; rat, oral, 28 days",up to 1000 mg/kg/day
same,MIC: N. gonorrhoeae ARC4676 (QR),[8],0.125 µg/mL
same,hepatocyte CLint,[9],1 µL/min/1e6 cells
same,MIC90,Streptococcus pneumoniae,0.25^2 µg/ml
same,MIC Range,Streptococcus pneumoniae,≤ 0.015 to 0.5 µg/mL
same,AUC,[10]; 200 mg/kg,1100 ± 130 µM·h
same,AUC,[10]; 500 mg/kg,2460 ± 470 µM·h
same,AUC,[10]; 1000 mg/kg,3820 ± 650 µM·h
same,platelet count,[10]; data not shown,no significant changes in platelet count
same,haematology versus vehicle control,"[10]; 2 lower doses (200, 500 mg/kg)",within statistical equivalence of the vehicle control
same,haematology versus vehicle control,[10]; highest dose (1000 mg/kg),"statistical elevation in reticulocytes, lymphocytes and white blood cells"
